pIC50, pKd, pKi: −log10 of the molar value. Counter-ions that a name gives are not always drawn. Like-named read-outs stand apart in the source and are kept apart here.
Experiments:
[1] = molecular target: T1, OBP1 (Bemisia tabaci, UniProt A0A1S6JPY5); assay: Fluorescence competitive binding assay, recombinant OBP1 with 1-NPN probe
Protocol: (§1) N-Phenyl-1-naphthylamine (1-NPN), 4,4′-Dianilino-1,1′-binaphthyl-5,5′-disulfonic acid dipotassium salt (bis-ANS), β-ionone, α-ionone, and […] were diluted with chromatographic-grade methanol to a final concentration of 1 mmol·L^−1, and the protein was diluted with 50 mM Tris-HCl (pH 7.4) to a final concentration of 2 μmol·L^−1. When 1-NPN was used as fluorescent probe, the excitation wavelength of the fluorescence spectrophotometer was set to 337 nm, and the scanning range was 350−500 nm. When bis-ANS was used as fluorescent probe, the excitation wavelength of the fluorescence spectrophotometer was set to 295 nm, and the scanning range was 300−550 nm. The fluorescent probe was gradually added to the protein-containing quartz tube to make it close to saturation. According to the Scatchard equation [35], the binding dissociation constants K1-NPN of OBP1 and the fluorescent probe 1-NPN and Kbis-ANS of OBP4 and fluorescent probe bis-ANS were determined. Protein and fluorescent probes were added to the quartz dish (the final concentration was 2 μM), and ionone was gradually added to determine the binding ability of the protein and ionone, and the dissociation constant Ki was calculated using the formula: Ki = [IC50]/(1 + [L]/KL), where [IC50] is the concentration of the ligand at which the fluorescence intensity is reduced by half, [L] is the concentration of the free fluorescent probe, and KL is the binding dissociation constant of the protein and the fluorescent probe. N-Phenyl-1-naphthylamine (1-NPN, Chemical Abstract Service (CAS): 90-30-2), 4,4’-dianilino-1,1’-binaphthyl-5,5’-disulfonic acid dipotassium salt (bis-ANS, CAS: 65664-81-5), methanol (CAS: 67-56-1), α-ionone (CAS: 127-41-3), β-ionone (CAS: 14901-07-6), and dihydro-β-ionone (CAS: 17283-81-7) were purchased from Sigma-Aldrich (St. Louis, MO, USA).

[2] = molecular target: T2, OBP4 (Bemisia tabaci, UniProt A0A1S6JPY9); assay: Fluorescence competitive binding assay, recombinant OBP4 with bis-ANS probe
Protocol: as §1

[3] = molecular target: T1, OBP1; assay: Fluorescence competitive binding, OBP1 with bis-ANS as probe (Figure S2C)
Protocol: as §1

[4] = molecular target: T2, OBP4; assay: Fluorescence competitive binding, OBP4 with 1-NPN as probe (Figure S2D); details: OBP4, 1-NPN as probe
Protocol: as §1

[5] = system: B. tabaci; details: cited from earlier work
[6] = molecular target: OBP8; parameters: method as in doi:10.1016/j.cropro.2009.10.001, PMID 19458158; details: B. tabaci OBP8; ref [9],[31]; cited from earlier work
[7] = system: flea beetle; parameters: method as in Caceres et al. [10]; details: ref Caceres et al. [10]; cited from earlier work
[8] = system: spider mite; parameters: method as in Caceres et al. [10]; details: ref Caceres et al. [10]; cited from earlier work

T1 sequence (A0A1S6JPY5 entry or part of it): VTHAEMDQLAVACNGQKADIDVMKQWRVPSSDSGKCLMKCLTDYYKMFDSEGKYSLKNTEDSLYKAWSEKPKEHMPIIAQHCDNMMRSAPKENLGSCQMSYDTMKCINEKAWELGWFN
T2 sequence (A0A1S6JPY9 entry or part of it): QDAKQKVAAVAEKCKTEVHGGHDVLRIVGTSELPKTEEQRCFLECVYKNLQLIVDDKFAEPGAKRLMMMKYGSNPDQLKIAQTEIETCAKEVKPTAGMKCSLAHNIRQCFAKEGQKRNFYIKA

Row | SMILES | binding ability (words) ([1]; OBP1, 1-NPN probe) | binding ability (words) ([2]; OBP4, bis-ANS probe) | binding ability (words) [3] | binding ability (words) [4] | pIC50 [1] | pIC50 [2] | also measured
1 | c1ccc(Nc2cccc3ccccc23)cc1 [1-NPN, N-Phenyl-1-naphthylamine, reference compound] | – | – | – | – | – | – | pKd [1]: 5.47
2 | O=S(=O)(O)c1cccc2c(-c3ccc(Nc4ccccc4)c4c(S(=O)(=O)O)cccc34)ccc(Nc3ccccc3)c12 [bis-ANS, 4,4′-Dianilino-1,1′-binaphthyl-5,5′-disulfonic acid dipotassium salt, reference compound] | – | – | – | – | – | – | pKd ([2]; OBP4 2 μmol·L^−1, 50 mM Tris-HCl pH 7.4, excitation 295 nm, read-out: dissociation constant of fluorescent probe (Scatchard)): 5.57
3 | CC(=O)CCC1=C(C)CCCC1(C)C [dihydro-β-ionone] | hardly displaced the fluorescent probe | hardly displaced the fluorescent probe | did not | did not | – | – | pIC50 ([1]; OBP1, 1-NPN probe, dash symbol of Table S2, read-out: IC50): < 4.30; pIC50 ([2]; OBP4, bis-ANS probe, dash symbol of Table S2, read-out: IC50): < 4.30
4 | CC(=O)/C=C/C1C(C)=CCCC1(C)C (stereo not drawn) [α-ionone] | weak binding | weak binding | did not | did not | 4.40 | 4.68 | binding ability (words) ([1]; OBP1, 1-NPN probe, listed as α-Ionone): weaker binding; binding ability (words) ([2]; OBP4, bis-ANS probe, listed as α-Ionone): weaker binding; ovipositioning repellent to whitefly ([5]; doses of 0.05 ng/μL and 0.5 ng/μL, ref [10]): weak ovipositioning repellent
5 | CC(=O)/C=C/C1=C(C)CCCC1(C)C [β-ionone] | – | – | bonded well | bonded well | 5.15 | 5.29 | B. tabaci egg production ([5]; concentrations of 0.1 ng/μL and 0.5 ng/μL, ref Cáceres et al. [10]): significantly inhibit; oviposition deterrence to whiteflies ([5]; ref Caceres et al. [10]): significant oviposition deterrence; pKi [6]: 4.88; repellent effect [7]: strong repellent effect; repellent effect [8]: strong repellent effect

Reference: article PMC6843521, “Discrimination of Oviposition Deterrent Volatile β-Ionone by Odorant-Binding Proteins 1 and 4 in the Whitefly Bemisia tabaci” (Biomolecules, 2019)
